Converted amounts (≈) assume the structure as drawn. Like-named read-outs stand apart in the source and are kept apart here.
What was measured:
[1] = molecular target: T1, Pseudomonas aeruginosa LpxC enzyme (Pseudomonas aeruginosa, UniProt P47205); test: IC50 assay, LpxC enzyme from P. aeruginosa (BioTrove RapidFire mass spectrometry); format: biochemical
T1 construct: made in house; host or cells: E. coli
T1 sequence (P47205 1-303): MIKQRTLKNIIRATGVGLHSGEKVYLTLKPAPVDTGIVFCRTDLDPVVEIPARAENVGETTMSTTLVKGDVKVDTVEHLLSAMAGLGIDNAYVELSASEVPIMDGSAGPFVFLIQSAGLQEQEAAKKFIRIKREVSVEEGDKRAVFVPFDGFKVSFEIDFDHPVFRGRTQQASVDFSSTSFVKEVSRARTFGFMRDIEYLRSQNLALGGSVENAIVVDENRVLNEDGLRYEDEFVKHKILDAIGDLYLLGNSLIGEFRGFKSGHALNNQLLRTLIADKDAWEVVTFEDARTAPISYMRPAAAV
Method: In order to assess the compounds biological activity, selected in-vitro assays were conducted on selected compounds of Formula I. One of the assays measured the compounds ability to disrupt the synthesis of lipopolysaccharide, LPS, which is a component of the outer membrane of Gram-negative bacteria. Disruption of this synthesis is lethal to the bacteria. The assay determined the compound's ability to inhibit LpxC, which is the first enzyme in the biosynthetic pathway for LPS (measured as IC50). Additionally, MICs (minimal inhibitory concentrations) were determined for several bacteria. The specific protocols are described below:
A) IC50 Assay, LpxC Enzyme from P. Aeruginosa Labeled as PA LpxC Enzyme IC50):
At the end of 1 hour, 5 ul of 1 N HCl was added to stop the enzyme reaction, the plates were centrifuged, and then processed with the BioTrove Rapidfire HTMS Mass Spectrometry System. A no-enzyme control was used in calculating the IC50 values from the percent conversion values.

[2] = test system: Acinetobacter baumannii/haemolyticus: Multidrug-resistant clinical isolate (AB-3167); test: MIC determination (CLSI), AB-3167; format: cell-based; details: Acinetobacter baumannii/haemolyticus multidrug-resistant clinical isolate; overnight incubation; lower of duplicate values; read-out: AB-3167 (MIC)
Method: (§1) The in vitro antibacterial activity of compounds described in the Examples was evaluated by minimum inhibitory concentration (MIC) testing according to Clinical and Laboratory Standards Institute (CLSI) Guidelines. See: Clinical and Laboratory Standards Institute. Methods for Dilution Antimicrobial Susceptibility Tests for Bacteria that Grow Aerobically; Approved Standard-Eighth Edition. CLSI document M7-A8 [ISBN 1-56238-689-1]. Clinical and Laboratory Standards Institute, 940 West Valley Road, Suite 1400, Wayne, Pa. 19087-1898 USA, 2006; also Clinical and Laboratory Standards Institute. Performance Standards for Antimicrobial Susceptibility Testing; Twentieth Informational Supplement. CLSI document M100-S20 [ISBN1-56238-716-2]. Clinical and Laboratory Standards Institute.
(§2) The MIC determination is a standard laboratory method for evaluating the antibacterial activity of a compound. The MIC represents the lowest drug concentration that inhibits visible growth of bacteria following overnight incubation. […] Typically, the drug concentration range is broken down into 2-fold increments (e.g. 0.06 μg/mL, 0.12 μg/mL. 0.25 μg/mL, 0.50 μg/mL, 1.0 μg/mL, etc.) and the various drug concentrations are all individually incubated overnight with approximately the same number of bacteria. The MIC is then determined by visually inspecting the drug effect at each concentration, and identifying the lowest drug concentration that has inhibited bacterial growth as compared to the drug free control. Typically, bacteria continue to grow at drug concentrations lower than the MIC and don't grow at concentrations at and above the MIC.
(§3) The MIC values described in Tables 2 and 3 below were derived from assays wherein each test compound was evaluated in duplicate. In cases where the duplicate values varied by 0-2-fold, the lower of the two values was reported below. Generally speaking, if the duplicate values varied by more than 2-fold, the assay was considered non-valid and was repeated until the variation between duplicate runs was ≦2-fold. In line with the CLSI guidelines referred to above, both control organisms and reference compounds were utilized in each MIC assay to provide proper quality control. MIC values generated with these control organisms and reference compounds were required to fall within a defined range for the assay to be considered valid and be included herein. Those skilled in the art will recognize that MIC values can and do vary from experiment to experiment. Generally speaking, it should be recognized that MIC values often vary +/−2-fold from experiment to experiment. While a single MIC is reported for each compound and each microorganism, the reader should not conclude that each compound was only tested once. Several of the compounds were subjected to multiple tests. The data reported in Tables 2 and 3 is reflective of the compounds relative activity and different MICs may have been generated on these occasions in line with the guidelines described above.
(§4) The following bacterial strains were used in these MIC determinations:
(1) Acinetobacter baumannii/haemolyticus: Multidrug-resistant clinical isolate labeled as AB-3167 in Table 5;

[3] = test system: Escherichia coli EC-1: VOGEL, mouse virulent; test: MIC determination (CLSI), EC-1; format: cell-based; details: Escherichia coli, read-out: EC-1 (MIC)
Method: as §1, §2, §3, §4
(2) Escherichia coli EC-1: VOGEL, mouse virulent labeled as EC-1 in Table 5;

[4] = test system: Klebsiella pneumoniae: Ciprofloxacin-resistant isolate, expresses ESBL, clinical isolate (KP-3700); test: MIC determination (CLSI), KP-3700; format: cell-based; details: overnight incubation, lower of duplicate values
Method: as §1, §2, §3, §4
(3) Klebsiella pneumoniae: Ciprofloxacin-resistant isolate, expresses extended-spectrum beta-lactamases (ESBL), clinical isolate, labeled as KP-3700 in Table 5.

[5] = test system: Pseudomonas aeruginosa UI-18: Wild-type (PA-7); test: MIC determination (CLSI), PA-7; format: cell-based; details: Pseudomonas aeruginosa UI-18 wild-type; overnight incubation; lower of duplicate values; read-out: PA-7 (MIC)
Method: as §1, §2, §3, §4
(4) Pseudomonas aeruginosa UI-18: Wild-type, labeled as PA-7 in Table 5;

[6] = P. aeruginosa LpxC enzyme 0.1 nM, 25° C., 1 hour, pH 8.0, read-out: PA: IC50

SMILES	IC50 [1, 6] [nM]	MIC [2] [µg/mL]	MIC [3] [µg/mL]	KP-3700 (MIC) [4] [µg/mL]	MIC [5] [µg/mL]	IC50 [1] [nM]
CC(C)(C)c1cccc(OCc2cn(CCC(C)(C(=O)NO)S(C)(=O)=O)nn2)c1 (stereo not shown) [Example 35, 4-{4-[(3-t-butylphenoxy)methyl]-1H-1,2,3-triazol-1-yl}-N-hydroxy-2-methyl-2-(methylsulfonyl)butanamide]	24	> 64	> 64	>64.0	> 64	–
CSc1cccc(OCc2cn(CCC(C)(C(=O)NO)S(C)(=O)=O)nn2)c1 (stereo not shown) [Example 36, N-hydroxy-2-methyl-4-(4-{[3-(methylsulfanyl)phenoxy]methyl}-1H-1,2,3-triazol-1-yl)-2-(methylsulfonyl)butanamide]	6.39	> 64	> 64	>64.0	32 (≈ 77.2 µM)	–
Cc1ccc(-c2cn(CCC(C)(C(=O)NO)S(C)(=O)=O)nn2)cc1 (stereo not shown) [Example 37, N-hydroxy-2-methyl-4-[4-(4-methylphenyl)-1H-1,2,3-triazol-1-yl]-2-(methylsulfonyl)butanamide]	–	> 64	16 (≈ 45.4 µM)	64	4 (≈ 11.4 µM)	1.39
CC(CCn1cc(-c2ccccc2Br)nn1)(C(=O)NO)S(C)(=O)=O (stereo not shown) [Example 38, 4-[4-(2-bromophenyl)-1H-1,2,3-triazol-1-yl]-N-hydroxy-2-methyl-2-(methylsulfonyl)butanamide]	18.9	> 64	16 (≈ 38.3 µM)	>64.0	32 (≈ 76.7 µM)	–
Cc1ccc(C)c(OCc2cn(CCC(C)(C(=O)NO)S(C)(=O)=O)nn2)c1 (stereo not shown) [Example 39, 4-{4-[(2,5-dimethylphenoxy)methyl]-1H-1,2,3-triazol-1-yl}-N-hydroxy-2-methyl-2-(methylsulfonyl)butanamide]	51.3	> 64	> 64	>64.0	> 64	–
CC(CCn1cc(-c2ccccc2)cn1)(C(=O)NO)S(C)(=O)=O (stereo not shown) [Example 40, N-hydroxy-2-methyl-2-(methylsulfonyl)-4-(4-phenyl-1H-pyrazol-1-yl)butanamide]	–	> 64	32 (≈ 94.8 µM)	>64.0	2 (≈ 5.93 µM)	4.63
Cc1ccc(-c2cnn(CCC(C)(C(=O)NO)S(C)(=O)=O)c2)cc1 (stereo not shown) [Example 41, N-hydroxy-2-methyl-4-[4-(4-methylphenyl)-1H-pyrazol-1-yl]-2-(methylsulfonyl)butanamide]	1.26	> 64	8 (≈ 22.8 µM)	64	2 (≈ 5.69 µM)	–
Cc1cccc(-c2cnn(CCC(C)(C(=O)NO)S(C)(=O)=O)c2)c1 (stereo not shown) [Example 42, N-hydroxy-2-methyl-4-[4-(3-methylphenyl)-1H-pyrazol-1-yl]-2-(methylsulfonyl)butanamide]	6.2	> 64	64 (≈ 182 µM)	>64.0	4 (≈ 11.4 µM)	–
Cc1ccccc1-c1cnn(CCC(C)(C(=O)NO)S(C)(=O)=O)c1 (stereo not shown) [Example 43, N-hydroxy-2-methyl-4-[4-(2-methylphenyl)-1H-pyrazol-1-yl]-2-(methylsulfonyl)butanamide]	11.3	> 64	32 (≈ 91.1 µM)	>64.0	16 (≈ 45.5 µM)	–
CC(CCn1cc(-c2cccc(O)c2)cn1)(C(=O)NO)S(C)(=O)=O (stereo not shown) [Example 44, N-hydroxy-4-[4-(3-hydroxyphenyl)-1H-pyrazol-1-yl]-2-methyl-2-(methylsulfonyl)butanamide]	21.1	> 64	> 64	>64.0	> 64	–
CC(CCn1cc(-c2ccccc2F)cn1)(C(=O)NO)S(C)(=O)=O (stereo not shown) [Example 45, 4-[4-(2-fluorophenyl)-1H-pyrazol-1-yl]-N-hydroxy-2-methyl-2-(methylsulfonyl)butanamide]	2.5	> 64	16 (≈ 45 µM)	64	2 (≈ 5.63 µM)	–
